The target in this experiment is T1, PLK1 (Homo sapiens, UniProt P53350).
T1 construct: endogenous in cells; host or cells: HeLa
In words: PLK1 protein degradation in HeLa cells, Western blotting (PLK1/GAPDH ratio). Conditions: 6 hours compound incubation; for DC50: measured only if the grade of Dmax is A or B; for Dmax: thymidine block and release, 10 points three-fold from 3 μM, PLK1 to GAPDH ratio, read-out: Dmax. The class given is cell-based. An excerpt:
The HeLa cell line was purchased from Korea Cell Line Bank (KCLB), Seoul, Korea. The passage in cell culture was maintained at P115 to P125.
For cell culture, DMEM (Gibco, Cat. No. 1195-65; Lot. No. 2085318), FBS (Gibco, Cat. No. 16000-044; Lot. No. 2097593), Penicillin/Streptomycin (PS) (Gibco, Cat. No. 15140-122; Lot. No. 2058855), 100 mm^2 cell culture dish (SPL, Cat. No. 20100), 150 mm^2 cell culture dish (SPL, Cat. No. 20150), 12-well culture plate (SPL, Cat. No. 30012), PBS pH 7.4 (Gibco, Cat. No. 10010-023; Lot. No. 2085080), TrypLE™ Express (Gibco, Cat. No. 12605-010; Lot No. 2070638), Counting Chamber (Hematocytometer) (Hirschmann, Cat. No. 8100204), and 0.4% Trypan Blue Solution (DYNEBIO, Cat. No. CBT3710; Lot. No. 20190723) were used.
2×10^5 cells were seeded for each well of a 12-well plate (SPL), and the cells were cultured in the culture medium in a total volume of 2 ml.
The compounds of Examples were completely dissolved in DMSO and used in the experiment, and thymidine was completely dissolved in DW and used in the experiment. For thymidine block, the products were treated with 2 mM of thymidine (Sigma-Aldrich Cat. No. T9250-5G) and then incubated for 24 hours.
For release and chemical treatment, the medium was suctioned and washed 3 times with 1×PBS. Complete media was added, followed by incubation for 4 hours in a CO2 incubator. Each compound was diluted three folds from the highest concentration of 3 μM to the lowest concentration in 10 points and then incubated for 6 hours again.
For SDS-PAGE and Western blotting, 1×RIPA lysis buffer (Rockland, Cat. No. MB-030-0050; Lot no. 39751), 100× Protease Inhibitor Cocktail (Quartett, Cat. No. PPI1015; Lot no. PCO50038424), Pierce™ BCA protein assay kit (ThermoScientific, Cat. No. 23225; Lot no. UC276876), albumin standard (ThermoScientific, Cat. No. 23209; Lot no. UB269561), 4-15% Mini-PROTEAN TGX stain-free gel (Bio-rad, Cat. No. 4568085; Lot no. L007041B), 10× Tris/Glycine/SDS buffer (Bio-rad, Cat. No. 1610732; Lot no. 10000044375B); 10×TBS (Bio-rad, Cat. No. 1706435; Lot no. 1000045140B), 10% Tween 20 (Cat. No. 1610781; Lot no. L004152B), Color protein standard broad range (NEB, Cat. No. P7719S; Lot no. 10040349), 4× Laemmli sample buffer (Bio-rad, Cat. No. 1610747; Lot no. L004133B), β-mercaptoethanol (Sigma-Aldrich, Cat. No. M3148; Lot no. 60-24-2), SuperBlock™ T20 (TBS) blocking buffer (ThermoScientific, Cat. No. 37536; Lot no. UC282578), 1M sodium azide solution (Sigma-Aldrich, Cat. No. 08591-1 mL-F; Lot no. BCBV4989), α-Rabbit pAb to Ms IgG (abcam, Cat. No. ab97046; Lot no. GR3252115-1), α-Goat pAb to Rb IgG (CST, Cat. No. 7074S; Lot no. 28), α-GAPDH (abcam, Cat. No. ab8245; Lot no. GR3275542-2), α-Plk1 (CST, Cat. No. 208G4), α-BRD4 (CST, Cat. No. 13440S), ECL™ Prime western blotting reagents (GE Healthcare, Cat. No. RPN2232; Lot no. 17001655), Ponceau S solution (Sigma-Aldrich, Cat. No. P7170; Lot no. SLBV4112), Difco™ Skim milk (BD, Cat. No. 232100; Lot no. 8346795), and iBlot® 2 NC Regular stacks (Invitrogen, Cat. No. IB323001; Lot no. 2NR110619-02) were used.
For cell harvesting, the cells were first separated from the plate using trypsin and then washed with the medium and PBS. Specifically, the medium was suctioned off and washed with 1 mL of PBS, and PBS was suctioned off. The cells were treated with 0.5 mL TrypLE™ Express at 37° C. for 7 minutes to separate the cells, and then 0.5 mL of complete medium was added to collect 1 mL of cell culture solution. Then, 1 mL of the cell collection solution was centrifuged at 8,000 rpm for 120 seconds, and the supernatant was removed. After washing with 0.2 mL of PBS, the PBS was removed.
For cell lysis, a lysis buffer was added and cell debris was removed to obtain a cell lysate. Specifically, the cells were treated with 70 μL of 1×RIPA buffer containing a protease inhibitor and incubated for 30 minutes on ice. Then, the cells were centrifuged at 4° C. and 15,000 rpm for 10 minutes to obtain a cell lysate. […]
(A western blot detects proteins with antibodies after separation by electrophoresis.)

By DC50 is commonly meant the concentration at which degradation of the target reaches its halfway point. For orientation: Dmax means the largest share of the target that was removed.

T1 sequence (P53350 whole entry): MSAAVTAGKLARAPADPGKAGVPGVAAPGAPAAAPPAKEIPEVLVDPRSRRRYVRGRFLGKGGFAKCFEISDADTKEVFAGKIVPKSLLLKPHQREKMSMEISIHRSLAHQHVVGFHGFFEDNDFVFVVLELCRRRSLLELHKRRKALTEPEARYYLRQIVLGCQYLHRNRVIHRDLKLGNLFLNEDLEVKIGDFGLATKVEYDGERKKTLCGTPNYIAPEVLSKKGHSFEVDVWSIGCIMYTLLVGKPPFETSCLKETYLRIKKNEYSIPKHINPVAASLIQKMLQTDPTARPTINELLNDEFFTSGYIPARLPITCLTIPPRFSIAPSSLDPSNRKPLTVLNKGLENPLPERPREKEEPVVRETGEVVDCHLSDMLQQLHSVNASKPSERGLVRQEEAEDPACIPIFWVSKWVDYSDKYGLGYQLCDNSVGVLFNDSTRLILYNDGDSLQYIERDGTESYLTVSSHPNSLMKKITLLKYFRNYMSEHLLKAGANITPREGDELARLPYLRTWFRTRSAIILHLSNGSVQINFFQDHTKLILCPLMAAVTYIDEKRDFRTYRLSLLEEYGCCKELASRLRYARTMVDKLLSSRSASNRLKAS

For the compound `COc1cc(C(=O)NC2CC3(C2)CN(C(=O)CCCCNc2cccc4c2C(=O)N(C2CCC(=O)NC2=O)C4=O)C3)c(F)cc1Nc1ncc2c(n1)N(C1CCCC1)CC(F)(F)C(=O)N2C` (stereo not drawn) [Compound 161, 4-((9-cyclopentyl-7,7-difluoro-5-methyl-6-oxo-6,7,8,9-tetrahydro-5H-pyrimido[4,5-b][1,4]diazepin-2-yl)amino)-N-(2-(5-((2-(2,6-dioxopiperidin-3-yl)-1,3-dioxoisoindolin-4-yl)amino)pentanoyl)-2-azaspiro[3.3]heptan-6-yl)-2-fluoro-5-methoxybenzamide], the DC50 is no more than 50 nM and the maximal degradation (Dmax) is no less than 80%.

As for `COc1cc(C(=O)N[C@H]2CCN(C(=O)CCC(=O)N3CCN(c4ccc5c(c4)C(=O)N(C4CCC(=O)NC4=O)C5=O)CC3)C2)c(F)cc1Nc1ncc2c(n1)N(C1CCCC1)CC(F)(F)C(=O)N2C` (stereo partly drawn) [Compound 144, 4-((9-cyclopentyl-7,7-difluoro-5-methyl-6-oxo-6,7,8,9-tetrahydro-5H-pyrimido[4,5-b][1,4]diazepin-2-yl)amino)-N-((3S)-1-(4-(4-(2-(2,6-dioxopiperidin-3-yl)-1,3-dioxoisoindolin-5-yl)piperazin-1-yl)-4-oxobutanoyl)pyrrolidin-3-yl)-2-fluoro-5-methoxybenzamide], the DC50 is no more than 50 nM and the Dmax was no less than 80%.

Turning to `COc1cc(C(=O)N[C@H]2CCN(C(=O)CCN3CCN(c4ccc5c(c4)C(=O)N(C4CCC(=O)NC4=O)C5=O)CC3)C2)ccc1Nc1ncc2c(n1)N(C1CCCC1)CC(F)(F)C(=O)N2C` (stereo partly drawn) [Example 174, 4-((9-cyclopentyl-7,7-difluoro-5-methyl-6-oxo-6,7,8,9-tetrahydro-5H-pyrimido [4,5-b][1,4]diazepin-2-yl)amino)-N-((3S)-1-(3-(4-(2-(2,6-dioxopiperidin-3-yl)-1,3-dioxoisoindolin-5-yl)piperazin-1-yl)propanoyl)pyrrolidin-3-yl)-3-methoxybenzamide], the Dmax was no less than 80%.

Regarding `COc1cc(C(=O)N[C@H]2CCN(C(=O)CCCN3CC4(C3)CN(c3cccc5c3C(=O)N(C3CCC(=O)NC3=O)C5=O)C4)C2)c(F)cc1Nc1ncc2c(n1)N(C1CCCC1)CC(F)(F)C(=O)N2C` (stereo partly drawn) [Example 175, 4-((9-cyclopentyl-7,7-difluoro-5-methyl-6-oxo-6,7,8,9-tetrahydro-5H-pyrimido[4,5-b][1,4]diazepin-2-yl)amino)-N-((3S)-1-(4-(6-(2-(2,6-dioxopiperidin-3-yl)-1,3-dioxoisoindolin-4-yl)-2,6-diazaspiro[3.3]heptan-2-yl)butanoyl)pyrrolidin-3-yl)-2-fluoro-5-methoxybenzamide], the Dmax is no less than 80%.

For `COc1cc(C(=O)NCCCCCCCCNc2cccc3c2C(=O)N(C2CCC(=O)NC2=O)C3=O)c(F)cc1Nc1ncc2c(n1)N(C1CCCC1)CC(F)(F)C(=O)N2C` (stereo not drawn) [Compound 154, 4-((9-cyclopentyl-7,7-difluoro-5-methyl-6-oxo-6,7,8,9-tetrahydro-5H-pyrimido[4,5-b][1,4]diazepin-2-yl)amino)-N-(8-((2-(2,6-dioxopiperidin-3-yl)-1,3-dioxoisoindolin-4-yl)amino)octyl)-2-fluoro-5-methoxybenzamide], the Dmax is less than 60%.

For the compound `COc1cc(C(=O)NC2CCN(CCOCCOc3cc(-c4scnc4C)ccc3CNC(=O)[C@@H]3C[C@@H](O)CN3C(=O)[C@@H](NC(=O)C3(F)CC3)C(C)(C)C)CC2)c(F)cc1Nc1ncc2c(n1)N(C1CCCC1)CC(F)(F)C(=O)N2C` [Example 85, (2S,4R)—N-(2-(2-(2-(4-(4-((9-cyclopentyl-7,7-difluoro-5-methyl-6-oxo-6,7,8,9-tetrahydro-5H-pyrimido[4,5-b][1,4]diazepin-2-yl)amino)-2-fluoro-5-methoxybenzamido)piperidin-1-yl)ethoxy)ethoxy)-4-(4-methylthiazol-5-yl)benzyl)-1-((S)-2-(1-fluorocyclopropane-1-carboxamido)-3,3-dimethylbutanoyl)-4-hydroxypyrrolidine-2-carboxamide], the Dmax is less than 60%.

Turning to `COc1cc(C(=O)NC2CCN(C(=O)COCCNc3cccc4c3C(=O)N(C3CCC(=O)NC3=O)C4=O)CC2)c(F)cc1Nc1ncc2c(n1)N(C1CCCC1)CC(F)(F)C(=O)N2C` (stereo not drawn) [Compound 31, 4-((9-cyclopentyl-7,7-difluoro-5-methyl-6-oxo-6,7,8,9-tetrahydro-5H-pyrimido[4,5-b][1,4]diazepin-2-yl)amino)-N-(1-(2-(2-((2-(2,6-dioxopiperidin-3-yl)-1,3-dioxoisoindolin-4-yl)amino)ethoxy)acetyl)piperidin-4-yl)-2-fluoro-5-methoxybenzamide], the Dmax was less than 60%.

On to `COc1cc(C(=O)N[C@H]2CCN(C(=O)CN3CCN(c4ccc5c(c4)C(=O)N(C4CCC(=O)NC4=O)C5=O)CC3)C2)c(F)cc1Nc1ncc2c(n1)N(C1CCCC1)CC(F)(F)C(=O)N2C` (stereo partly drawn) [Compound 135, 4-((9-cyclopentyl-7,7-difluoro-5-methyl-6-oxo-6,7,8,9-tetrahydro-5H-pyrimido[4,5-b][1,4]diazepin-2-yl)amino)-N-((3S)-1-(2-(4-(2-(2,6-dioxopiperidin-3-yl)-1,3-dioxoisoindolin-5-yl)piperazin-1-yl)acetyl)pyrrolidin-3-yl)-2-fluoro-5-methoxybenzamide], for which the DC50 was no more than 50 nM and the Dmax was no less than 80%.

Turning to `COc1cc(C(=O)NC2CCN(CCCCOCCCNc3cccc4c3C(=O)N(C3CCC(=O)NC3=O)C4=O)CC2)c(F)cc1Nc1ncc2c(n1)N(C1CCCC1)CC(F)(F)C(=O)N2C` (stereo not drawn) [Compound 19, 4-((9-cyclopentyl-7,7-difluoro-5-methyl-6-oxo-6,7,8,9-tetrahydro-5H-pyrimido[4,5-b][1,4]diazepin-2-yl)amino)-N-(1-(4-(3-((2-(2,6-dioxopiperidin-3-yl)-1,3-dioxoisoindolin-4-yl)amino)propoxy)butyl)piperidin-4-yl)-2-fluoro-5-methoxybenzamide], the DC50 is no more than 500 nM and the Dmax was 60 to 80%.

For `COc1cc(C(=O)NC2CCN(CC3CCN(c4ccc5c(c4)C(=O)N(C4CCC(=O)NC4=O)C5=O)CC3)CC2)c(F)cc1Nc1ncc2c(n1)N(C1CCCC1)CC(F)(F)C(=O)N2C` (stereo not drawn) [Compound 67, 4-((9-cyclopentyl-7,7-difluoro-5-methyl-6-oxo-6,7,8,9-tetrahydro-5H-pyrimido[4,5-b][1,4]diazepin-2-yl)amino)-N-(1-((1-(2-(2,6-dioxopiperidin-3-yl)-1,3-dioxoisoindolin-5-yl)piperidin-4-yl)methyl)piperidin-4-yl)-2-fluoro-5-methoxybenzamide], the DC50 was no more than 500 nM and the Dmax lay in the range of 60 to 80%.
